From PubChem BioAssay AID1963962 (Molecular Pharmacology Branch, DTP, NCI, 2024)
Each block holds one compound with its values, some of them ahead of it.

Test system: 967376-340-R-J2-PDC multicell spheroid viability
Assay: Anticancer human tumor 967376-340-R-J2-PDC patient-derived colon adenocarcinoma cell line growth inhibition [PI3K]
Details: for IC50: curve of first compound; for viability, T/C: stronger effect = lower value
Summary of the method: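 Tumor cells grown as multi-cell spheroids with HUVEC endothelial cells and MSC fibroblast-like stroma were treated with targeted agents combined with inavolisib, alpelisib, duvelisib or copanlisib. Doses fell in half-log steps from near clinical Cmax, else from 10 microM. Viability was measured.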
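Further: spheroids exposed to agents for 7 days before read-out.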
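Wherever viability, T/C is given: luminescence used as surrogate of cell viability.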

IC50 (second compound 0.00316 µM): > 1000 nM
IC50 (second compound 0.01 µM): > 1000 nM
IC50 (second compound 0.0316 µM): 769 nM
IC50 (second compound 0.1 µM): 25 nM
IC50 (second compound 0.316 µM): < 3.16 nM
IC50 (second compound 1 µM): < 3.16 nM
Compound: CCN1CCN(Cc2ccc(Nc3ncc(F)c(-c4cc(F)c5nc(C)n(C(C)C)c5c4)n3)nc2)CC1 + COc1c(OCCCN2CCOCC2)ccc2c3n(c(=NC(=O)c4cnc(N)nc4)nc12)CCN3
viability, T/C (second compound 0.00316 µM, first compound 0.00316 µM): 85.1%
viability, T/C (second compound 0.00316 µM, first compound 0.01 µM): 95.7%
viability, T/C (second compound 0.00316 µM, first compound 0.0316 µM): 87.6%
viability, T/C (second compound 0.00316 µM, first compound 0.1 µM): 83.5%
viability, T/C (second compound 0.00316 µM, first compound 0.316 µM): 79.7%
viability, T/C (second compound 0.00316 µM, first compound 1 µM): 70.8%
viability, T/C (second compound 0.01 µM, first compound 0.00316 µM): 85.3%
viability, T/C (second compound 0.01 µM, first compound 0.01 µM): 77.9%
viability, T/C (second compound 0.01 µM, first compound 0.0316 µM): 62.4%
viability, T/C (second compound 0.01 µM, first compound 0.1 µM): 71.1%
viability, T/C (second compound 0.01 µM, first compound 0.316 µM): 73.2%
viability, T/C (second compound 0.01 µM, first compound 1 µM): 60.6%
viability, T/C (second compound 0.0316 µM, first compound 0.00316 µM): 68.6%
viability, T/C (second compound 0.0316 µM, first compound 0.01 µM): 68.4%
viability, T/C (second compound 0.0316 µM, first compound 0.0316 µM): 71.4%
viability, T/C (second compound 0.0316 µM, first compound 0.1 µM): 52.3%
viability, T/C (second compound 0.0316 µM, first compound 0.316 µM): 63.6%
viability, T/C (second compound 0.0316 µM, first compound 1 µM): 46.5%
viability, T/C (second compound 0.1 µM, first compound 0.00316 µM): 66%
viability, T/C (second compound 0.1 µM, first compound 0.01 µM): 57.6%
viability, T/C (second compound 0.1 µM, first compound 0.0316 µM): 48.2%
viability, T/C (second compound 0.1 µM, first compound 0.1 µM): 40.1%
viability, T/C (second compound 0.1 µM, first compound 0.316 µM): 39.2%
viability, T/C (second compound 0.1 µM, first compound 1 µM): 34.9%
viability, T/C (second compound 0.316 µM, first compound 0.00316 µM): 53.2%
viability, T/C (second compound 0.316 µM, first compound 0.01 µM): 34.8%
viability, T/C (second compound 0.316 µM, first compound 0.0316 µM): 43.4%
viability, T/C (second compound 0.316 µM, first compound 0.1 µM): 43.3%
viability, T/C (second compound 0.316 µM, first compound 0.316 µM): 42.4%
viability, T/C (second compound 0.316 µM, first compound 1 µM): 29.6%
viability, T/C (second compound 1 µM, first compound 0.00316 µM): 42.2%
viability, T/C (second compound 1 µM, first compound 0.01 µM): 35.5%
viability, T/C (second compound 1 µM, first compound 0.0316 µM): 38.4%
viability, T/C (second compound 1 µM, first compound 0.1 µM): 22.8%
viability, T/C (second compound 1 µM, first compound 0.316 µM): 28.4%
viability, T/C (second compound 1 µM, first compound 1 µM): 30.3%

IC50 (second compound 0.00316 µM): 2850 nM
IC50 (second compound 0.01 µM): 2080 nM
IC50 (second compound 0.0316 µM): 1010 nM
IC50 (second compound 0.1 µM): 332 nM
IC50 (second compound 0.316 µM): < 9.49 nM
IC50 (second compound 1 µM): < 9.49 nM
Compound: Cn1cnc2c(F)c(Nc3ccc(Br)cc3Cl)c(C(=O)NOCCO)cc21 + COc1c(OCCCN2CCOCC2)ccc2c3n(c(=NC(=O)c4cnc(N)nc4)nc12)CCN3
viability, T/C (second compound 0.00316 µM, first compound 0.00949 µM): 85.7%
viability, T/C (second compound 0.00316 µM, first compound 0.03 µM): 79.2%
viability, T/C (second compound 0.00316 µM, first compound 0.0949 µM): 87.5%
viability, T/C (second compound 0.00316 µM, first compound 0.3 µM): 67.9%
viability, T/C (second compound 0.00316 µM, first compound 0.949 µM): 80.5%
viability, T/C (second compound 0.00316 µM, first compound 3 µM): 48.7%
viability, T/C (second compound 0.01 µM, first compound 0.00949 µM): 106%
viability, T/C (second compound 0.01 µM, first compound 0.03 µM): 86.6%
viability, T/C (second compound 0.01 µM, first compound 0.0949 µM): 66.9%
viability, T/C (second compound 0.01 µM, first compound 0.3 µM): 79.9%
viability, T/C (second compound 0.01 µM, first compound 0.949 µM): 87%
viability, T/C (second compound 0.01 µM, first compound 3 µM): 33.4%
viability, T/C (second compound 0.0316 µM, first compound 0.00949 µM): 80.1%
viability, T/C (second compound 0.0316 µM, first compound 0.03 µM): 61.2%
viability, T/C (second compound 0.0316 µM, first compound 0.0949 µM): 51.7%
viability, T/C (second compound 0.0316 µM, first compound 0.3 µM): 53.2%
viability, T/C (second compound 0.0316 µM, first compound 0.949 µM): 57.6%
viability, T/C (second compound 0.0316 µM, first compound 3 µM): 15.3%
viability, T/C (second compound 0.1 µM, first compound 0.00949 µM): 49.2%
viability, T/C (second compound 0.1 µM, first compound 0.03 µM): 59.9%
viability, T/C (second compound 0.1 µM, first compound 0.0949 µM): 49.6%
viability, T/C (second compound 0.1 µM, first compound 0.3 µM): 53.1%
viability, T/C (second compound 0.1 µM, first compound 0.949 µM): 19.8%
viability, T/C (second compound 0.1 µM, first compound 3 µM): 1.95%
viability, T/C (second compound 0.316 µM, first compound 0.00949 µM): 28.5%
viability, T/C (second compound 0.316 µM, first compound 0.03 µM): 65.1%
viability, T/C (second compound 0.316 µM, first compound 0.0949 µM): 46.9%
viability, T/C (second compound 0.316 µM, first compound 0.3 µM): 23.9%
viability, T/C (second compound 0.316 µM, first compound 0.949 µM): 1.63%
viability, T/C (second compound 0.316 µM, first compound 3 µM): 1.2%
viability, T/C (second compound 1 µM, first compound 0.00949 µM): 44.2%
viability, T/C (second compound 1 µM, first compound 0.03 µM): 25.5%
viability, T/C (second compound 1 µM, first compound 0.0949 µM): 32.3%
viability, T/C (second compound 1 µM, first compound 0.3 µM): 16.7%
viability, T/C (second compound 1 µM, first compound 0.949 µM): 1.19%
viability, T/C (second compound 1 µM, first compound 3 µM): 1.28%
